Earlier results as cited in patent US20070264672A1, “DEVELOPMENT OF A NOVEL ASSAY FOR MGMT (METHYL GUANINE METHYL TRANSFERASE)” (priority 2006, published 2007).

Tests used:
MGMT = biological target: T1, MGMT (Homo sapiens, UniProt P16455); settings: human carcinoma HT-29 cell line, after exposure to the agent
T1 construct: endogenous in cells; host or cells: HT-29 (human carcinoma cell line)
T1 sequence (P16455 1-207): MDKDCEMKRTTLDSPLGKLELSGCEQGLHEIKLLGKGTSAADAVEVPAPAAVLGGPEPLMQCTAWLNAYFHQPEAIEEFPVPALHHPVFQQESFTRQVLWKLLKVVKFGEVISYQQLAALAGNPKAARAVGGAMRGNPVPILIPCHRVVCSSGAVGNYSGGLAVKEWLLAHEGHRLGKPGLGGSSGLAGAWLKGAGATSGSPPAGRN

[1] = system: human carcinoma HT-29 cell line; settings: combined with BCNU

Row | Structure (SMILES) | duration of inhibition of MGMT activity (MGMT) [h] | effect on chemotherapy-induced cytotoxicity after depletion of MGMT (glioma cell lines) | potentiation of BCNU-induced cytotoxicity over that observed with BCNU alone [1]
1 | CN(N=O)C(=O)N[C@H]1C(O)O[C@H](CO)[C@@H](O)[C@@H]1O (mixture of isomers) [streptozotocin] | 48 | – | –
2 | Nc1nc(OCc2ccccc2)c2nc[nH]c2n1 [O^6—BG, O^6 benzylguanine] | 48 | enhanced | three logs
